Details of data set [1]: species or system cynomolgus monkeys. The conditions noted are these: female, cynomolgus monkey, in vivo, po, 10 mg/kg. The protocol: The example allows comparison of the pharmacokinetics of sapropterin and the BH4 derivative after a single oral administration in groups of cynomolgus monkeys.
A single dose of sapropterin (10 mg/kg) was administered orally to a first group of female cynomolgus monkeys (3/group) under fasting conditions. A single dose of Compound I (10 mg/kg) was administered orally to second group of female cynomolgus monkeys (3/group) under fasting conditions.
The bioavailability (F) following a 10 mg/kg oral administration to female monkeys was about 9%.

On the set-up of data set [2]: species or system Sprague Dawley rats. The following applies: male, Sprague Dawley, rat, in vivo, po, 100 mg/kg. How it is done:
This example allows for comparison of the pharmacokinetics of the BH4 derivative versus that of BH4 following single oral administration in rats.
Single doses of BH4 (10 and 100 mg/kg) were administered orally to a […] of male Sprague Dawley rats (6 weeks old) under fasting conditions. Single doses of Compound I were administered orally to a […] of male Sprague Dawley rats (6 weeks old) under fasting conditions.
With respect to the administered BH4, the maximum total biopterin concentrations in plasma 2 hrs and 1 hr post-dosing were 108 ng/ml (i.e., about 3 fold the endogenous level) and 1227 ng/ml (i.e., about 30 fold the endogenous level), respectively. […] The ratio of reduced biopterin to total biopterins in plasma (i.e., the reduced-form ratio) was relatively static (73%-96%).

Consider `C[C@H](O)[C@H](O)[C@H]1CNc2nc(N)[nH]c(=O)c2N1` [sapropterin], for which, in data set [1], the “bioavailability (F)” value was “about 9%” and the “plasma elimination half-life of biopterin” value is “approximately 1.4 hrs”. Consider `C[C@H](O)[C@H](O)[C@H]1CNc2nc(N)[nH]c(=O)c2N1` [BH4, (6R)-5,6,7,8-tetrahydro-L-biopterin], for which the “biopterin elimination half-life (t1/2)” value in data set [2] is given as “about 1.1 hr”.

For the origin of these results see patent US20100009997A1, “METHOD OF TREATING A METABOLIC OR NEUROPSYCHIARTY DISORDER WITH A BH4 DERIVATIVE PRODRUG” (BIOMARIN PHARMACEUTICAL INC., priority 2007, published 2010).
